Test results from patent US20260151363A1, “MELANOGENESIS INHIBITION COMPOSITIONS AND METHODS OF USE THEREOF” (MDI BIOLOGICAL LABORATORY, priority 2023, published 2026).
Like-named read-outs stand apart in the source and are kept apart here.

Key:
[1] = test system: melanin production; test: Melanin production and toxicity, ML233 analogs in parallel with ML233 (serial dilution); conditions: for toxicity: 25 μM
Experimental: The ML233 analogs were tested in parallel with serial dilution in DMSO: at 25 μM, 12.5 μM, […], 3.12 5 μM, 1.5625 μM and […].

[2] = test system: zebrafish embryos; test: Pigmentation of zebrafish embryos (micrographs); format: in vivo
Experimental: Zebrafish embryos were allowed to develop in the presence of ML233 and the effects of ML233 on pigmentation was analyzed. ML233 was dissolved in carrier Dimethylsulfoxide (DMSO). Embryos were exposed to ML233 beginning at four hours post-fertilization and ending at 48 hours post-fertilization. Dimethylsulfoxide (DMSO) was used as a negative control. ML233 dosages tested were 2.5 micromolar, five micromolar, and 10 micromolar (FIG. 1A).
The effect of ML233 on pigmentation was analyzed in zebrafish embryos at 38 hours post-fertilization when larvae were highly pigmented. Embryos were treated with ML233 at the following concentrations: 5 micromolar, 10 micromolar, and 15 micromolar. The carrier, DMSO, was used as a negative control. Pigmentation was analyzed six hours (FIG. 2A) and 24 hours after ML233 addition (FIG. 2B).

[3] = test system: zebrafish embryos; test: Percent melanin quantity in zebrafish embryos; format: in vivo
Experimental: The effect of ML233 on percent melanin quantity was assayed in zebrafish embryos beginning at 4 hours post-fertilization and ending at 48 hours. Developing embryos were treated with ML233 in DMSO carrier at varying dosages, or DMSO as a negative control or with phenylthiourea (PTU) as a positive control.

[4] = test system: tyrosinase; test: Tyrosinase activity in treated zebrafish embryos (absorbance of L-DOPA); format: in vivo
Experimental: To determine the effect of ML233 on tyrosinase activity, zebrafish embryos were treated with ML233 at the following concentrations: 0.5 micromolar, 1.25 micromolar, 2.5 micromolar, five micromolar, 10 micromolar, and 15 micromolar ML233 (FIG. 3A). DMSO was used as a carrier and the tyrosinase inhibitor PTU was used as a positive control.

[5] = test system: tyrosinase; test: In vitro tyrosinase activity (FIG. 3B); format: biochemical; conditions: compared to DMSO
From the text: The effect of ML233 on tyrosinase activity was also explored in in vitro experiments.

[6] = test system: mushroom TYR; test: Mushroom TYR conversion of L-DOPA to melanin in vitro (FIG. 3C); format: biochemical; conditions: 20 μM; compared to DMSO
Experimental: To determine whether ML233, a small inhibitor of melanogenesis, acts directly on tyrosinase (TYR) activity in vitro, the activity of mushroom TYR was assessed via measurement of its capacity to convert L-DOPA to melanin in vitro using Kojic Acid at 100 μM as a positive control.

[7] = test system: zebrafish embryos; test: Zebrafish embryo viability / toxicity; format: in vivo; conditions: 2.5, five
From the text: Studies were undertaken to evaluate the effect of ML233 on embryo viability. […] The number of viable and dead embryos at 1 day post fertilization (dpf), 2 dpf, 3 dpf and 4 dpf and at various doses of ML233 was compared to embryo viability in negative controls, which included embryos treated with the carrier DMSO or untreated embryos. (FIG. 4A).

[8] = test system: B16F10 murine melanoma cell line; test: B16F10 melanoma cell proliferation / viability; format: cell-based; conditions: Mus musculus, B16-F10
Experimental: ML233 reduced pigmentation in a mammalian melanoma cell line. In vivo, in vitro, and computational studies described here supported the hypothesis that ML233 was a direct inhibitor of TYR protein expression and function. The effects of ML233 and cisplatin on the proliferation of B16F-10 murine melanoma cells in vitro was analyzed. To determine the effects of conservation in higher vertebrate species, ML233 activity in the B16F10 murine melanoma cell line was tested. B16F10-cell proliferation was analyzed after ML233 treatment to determine IC50. A 50% reduction in cell viability at concentrations of ML233 between 5 and 10 μM was observed (FIG. 5A). Cells were treated with various concentration of ML233 or cisplatin and the cell viability of control percent versus the concentration of ML233 or cisplatin (in μM) was analyzed (FIGS. 5A and 5B).

[9] = test system: B16F10 murine melanoma cells; test: Melanin production in B16F10 cells (OD 410, IBMX-stimulated); format: cell-based
Experimental: To determine if ML233 could inhibit pigmentation of […] cells at low ML233 concentrations (without effects on cell proliferation), melanin production was analyzed in B16F10 cells after 24 hours of treatment with 0.625 μM, 1.25 μM, 2.5 μM, or 5 μM of ML233. Observation of cell pellets after centrifugation confirmed that ML233 function to inhibit melanin production was conserved in mammals (data not shown). The effect of ML233 and 3-isobutyl-1-methylxanthine (IBMX) on melanin production was analyzed in B16F10 murine melanoma cells. IBMX is a non-selective phosphodiesterase inhibitor, which induced melanin production in B16F10 murine melanoma cells. Melanin production was measured in cells treated with IBMX alone (100 micromolar), and IBMX in conjunction with: 0.625 micromolar ML233, 1.25 micromolar ML233, 2.5 micromolar ML233, and five micromolar ML233, as well as in negative control cells treated with DMSO vehicle alone. Melanin production in treated cells was measured using optical density (FIG. 6A) at a wavelength of 410 nm (OD value 410). Ratios with the total quantity of protein (OD value 562) were calculated (FIG. 6B). […] P-values are indicated in the bar charts.

[10] = test system: tyrosinase; test: Tyrosinase expression by Western blot and densitometry (FIG. 9); conditions: 15 μM
Experimental: An analysis of tyrosinase expression after ML233 treatment was performed. […] Quantitative analysis was also performed using densitometry of tyrosinase expression after ML233 treatment at 15 μM of the Western blot data (FIG. 9B). DMSO was a negative control, while phenylthiourea (PTU), which is a potent inhibitor of human tyrosinase), was used as a positive control. CRISPR was used as a specificity control of the antibody used in the analysis, where CRISPR was directed against the tyrosinase gene.

[11] = test system: tyr, dct, and mitfa mRNA expression; test: RT-qPCR of tyr, dct and mitfa mRNA in zebrafish embryos; format: in vivo
Experimental: (§1) Example 10: Tyrosinase gene expression was not abolished by ML233 treatmentTo better understand the molecular action of ML233 on skin pigmentation and melanogenesis, the expression of genes involved in melanogenesis, including tyrosinase (tyr), dopachrome tautomerase (dct), and microphthalmia-associated transcription factor (mitfa), the latter which is known to control melanocyte formation and TYR expression, was analyzed.

[12] = test system: mitfa and tyr genes; test: In situ hybridization of mitfa and tyr in zebrafish embryos; format: in vivo; conditions: for tyr mRNA detection (in situ hybridization): embryos at 48 hpf, treated between 24 and 48 hpf
Experimental: as §1

[13] = test system: zebrafish embryos; test: Bulk RNAseq and GSEA in WT and aplnr KO zebrafish embryos; format: in vivo; conditions: 0.5 μM
From the text: Because ML233 is an agonist of the apelin receptors, ML233 driven differential expression in an apelin dependent and independent manner was investigated. […] A clear separation in gene expression between the WT and KO backgrounds was observed (FIG. 10C).

[14] = test system: B16F10 (murine melanoma); test: Tyrosinase protein expression (Western blot) and pigmentation in B16F10 cells; format: cell-based; conditions: 5 μM
Experimental: To study these two possibilities, an antibody raised against the human tyrosinase protein was used. The capacity of the antibody to recognize TYR in two different mammalian cell lines (FIG. 11A): B16F10 (murine melanoma) and A375 (human melanoma) was tested. Using the validated antibody, the level of tyrosinase protein expression by Western blot in control DMSO and 5 μM ML233 treated cells (FIG. 11B) was analyzed.

[15] = test system: ME1154B human melanoma line; test: cells; format: cell-based; conditions: ME1154B 3D organoids, read-out: IC50 viability/proliferation
Experimental: (§2) Because ML233 affected B16F10 murine melanoma-cell proliferation, the proliferative potential of human metastatic melanoma was determined. Patient-derived xenograft organoids (PDXOs), which were 3D in vitro models generated from patient tumors, were used. The effect of ML233 treatment (between 0.001 μM and 10 μM) in two different human melanoma cell lines collected from metastasis, ME1154B and ME2319B (Crown Bioscience). These two melanoma lines differed in their sensitivity to both ML233 and the control molecule, staurosporine (STS), in 3D organoids (FIGS. 12A-12B).

[16] = test system: ME2319B human melanoma line; test: PDXO viability/proliferation, ME2319B; format: cell-based; conditions: ME2319B 3D organoids
Experimental: as §2

[17] = serial dilution 25 μM to 0.78125

Compound: CC1=C/C(=N/OS(=O)(=O)c2ccccc2)C(C(C)C)=CC1=O [(i), [(Z)-(5-methyl-4-oxo-2-propan-2-ylcyclohexa-2,5-dien-1-ylidene)amino]benzenesulfonate]
- toxicity [1]: higher toxicity
- inhibition of melanin production [1, 17]: Inhibition of melanin production was also observed

Compound: CC1=CC(=O)C(C(C)C)=C/C1=N\OS(=O)(=O)c1ccccc1 [(iii), [(E)-(2-methyl-4-oxo-5-propan-2-ylcyclohexa-2,5-dien-1-ylidene)amino]benzenesulfonate]
- toxicity [1]: higher toxicity
- inhibition of melanin production [1, 17]: Inhibition of melanin production was also observed

Compound: CC1=CC(=O)C(C2CCCCC2)=C/C1=N\OS(=O)(=O)c1ccccc1 [ML233, (E)-2-cyclohexyl-5-methyl-4-(phenylsulfonyloxyimino)cyclohexa-2,5-dienone]
- pigmentation of embryos ([2]; 2.5, five and 10 micromolar, exposure 4 to 48 hours post-fertilization, vs DMSO): visible decrease in pigmentation
- pigmentation of embryos ([2]; treated at 38 hours post-fertilization, 5, 10, 15 micromolar, six hours and 24 hours after addition): reduced pigmentation at all dosages
- melanin production (percent melanin quantity) ([3]; 0.5 to 15 micromolar, 4 to 48 hours post-fertilization): significantly inhibited melanin production at all levels tested
- melanin quantity compared with PTU ([3]; 5 micromolar and above): comparable to treatment with PTU
- percent of tyrosinase activity compared with PTU ([4]; 10 micromolar and 15 micromolar ML233 groups): comparable to PTU
- tyrosinase activity ([4]; concentration as low as 0.5 micromolar): significantly reduced
- reduction of tyrosinase activity ([5]; 20 micromolar): greater than 40%
- reduction of tyrosinase activity ([5]; 30 micromolar): 50%
- reduction of melanogenesis (L-DOPA to melanin) [6]: ~40%
- percent viability at day four post fertilization ([7]; 10 and 20 micromolar): No deleterious effects on zebrafish viability
- toxicity (viable and dead embryos at 1 to 4 dpf) ([7]; 10 and 20 micromolar from 4 hours post-fertilization): low toxicity at effective concentrations
- IC50 ([8]; B16F10, read-out: concentration giving 50% reduction in cell viability): 5 to 10 µM
- IC50 ([8]; B16F10 proliferation, read-out: in vitro IC50): 10 µM
- melanogenesis (melanin OD 410; ratio to protein OD 562) ([9]; IBMX 100 micromolar plus 0.625, 1.25, 2.5 or five micromolar ML233): reduced melanogenesis in mammalian melanoma cells at all dosages
- B16F10 cells survival ([9]; between 0.625 and 5 μM): without affecting B16F10 cells survival
- melanoma-cell pigmentation (absorbance quantification of melanin) ([9]; concentrations as low as 0.625 μM): significantly reduced
- inhibition of melanin production ([1]; 3.125 μM and lower concentrations): very efficient at inhibiting melanin production
- tyrosinase expression (Western blot) [10]: tyrosinase expression was inhibited
- tyr expression by RT-qPCR ([11]; 5 μM and greater): Significantly decreased
- maximum reduction of tyr expression ([11]; 20 μM, compared to DMSO-treated embryos): ~40%
- mitfa expression by RT-qPCR ([11]; any concentration): not significantly dysregulated
- tyr, dct, and mitfa mRNA expression by RT-qPCR ([11]; embryos at 2 dpf after 1 day of treatment): mild reduction of gene expression
- mitfa and tyr gene expression in melanocytes (in situ hybridization) ([12]; 2 dpf after 1 day of 15 μM): still expressed in melanocytes
- tyr mRNA detection (in situ hybridization) [12]: highly detectable
- impact on biological processes (GSEA) [13]: did not significantly impact biological processes
- pigmentation of cells [14]: strong reduction in the pigmentation
- TYR protein expression normalized with Beta-actin ([14]; vs DMSO): no significant reduction of TYR protein expression
- IC50 [15]: 1.65 µM
- viability ([16]; between 0.001 μM and 10 μM): did not affect ME2319B viability at any concentration tested

Compound: NC(=S)Nc1ccccc1 [PTU, phenylthiourea, reference compound]
- tyr mRNA detection (in situ hybridization) [12]: highly detectable

Compound: CN[C@@H]1C[C@H]2O[C@@](C)([C@@H]1OC)n1c3ccccc3c3c4c(c5c6ccccc6n2c5c31)C(=O)NC4 [STS, staurosporine, reference compound]
- IC50 ([16]; Homo sapiens): 0.0025 µM

Compound: [(E)-(5-methyl-4-oxo-2-propan-2-ylcyclohexa-2,5-dien-1-ylidene)amino]4-methylbenzenesulfonate [(ii)]
- inhibition of melanin production [1, 17]: Inhibition of melanin production was also observed
